Measured values published in patent US10899786B2, “Nucleoside phosphate compound and preparation method and use thereof” (SICHUAN KELUN-BIOTECH BIOPHARMACEUTICAL CO., LTD., priority 2016, dated 2021).

Key:
CYP450 enzymes = assay: CYP inhibition test, overall statement on the eight CYP450 enzymes; assay type: in vitro ADME; conditions: all the eight CYP450 enzymes
Experimental: (§1) The compound was dissolved in DMSO to prepare a 10 mM stock solution. The stock solution was further diluted into a series of working solutions of 5, 1.5, 0.5, 0.15, 0.05, 0.015 and 0.005 mM with a mixed solvent of DMSO:methanol=1:1.
(§2) The substrates were each dissolved in DMSO to prepare stock solutions of the corresponding concentrations.
(§3) The positive controls were each dissolved in DMSO to prepare stock solutions of the corresponding concentrations. They were then diluted with methanol to the corresponding concentrations of working solutions.
(§4) The protein concentration of liver microsomes in the reaction system was 0.2 mg/mL, and the coenzyme NADPH was 1.0 mM. The incubation was carried out in a water bath at 37° C. The reaction was quenched and subjected to conventional procedures for LC-MS/MS analysis.
The risk of drug interaction is little, and thus higher safety exists. Other compounds of the invention all have similar safety.

CYP2C9 = target: T1, CYP2C9 (Homo sapiens, UniProt P11712); assay: CYP inhibition test, liver microsome incubation; assay type: in vitro ADME; conditions: liver microsomes, probe diclofenac
T1 construct: The protein concentration of liver microsomes in the reaction system was 0.2 mg/mL; from tissue; host or cells: liver microsomes
Experimental: as §1, §2, §3, §4

CYP2B6 = target: T2, CYP2B6 (Homo sapiens, UniProt P20813); assay: CYP inhibition test, liver microsome incubation; assay type: in vitro ADME; conditions: liver microsomes, probe bupropion
T2 construct: The protein concentration of liver microsomes in the reaction system was 0.2 mg/mL; from tissue; host or cells: liver microsomes
T2 sequence (P20813 1-491): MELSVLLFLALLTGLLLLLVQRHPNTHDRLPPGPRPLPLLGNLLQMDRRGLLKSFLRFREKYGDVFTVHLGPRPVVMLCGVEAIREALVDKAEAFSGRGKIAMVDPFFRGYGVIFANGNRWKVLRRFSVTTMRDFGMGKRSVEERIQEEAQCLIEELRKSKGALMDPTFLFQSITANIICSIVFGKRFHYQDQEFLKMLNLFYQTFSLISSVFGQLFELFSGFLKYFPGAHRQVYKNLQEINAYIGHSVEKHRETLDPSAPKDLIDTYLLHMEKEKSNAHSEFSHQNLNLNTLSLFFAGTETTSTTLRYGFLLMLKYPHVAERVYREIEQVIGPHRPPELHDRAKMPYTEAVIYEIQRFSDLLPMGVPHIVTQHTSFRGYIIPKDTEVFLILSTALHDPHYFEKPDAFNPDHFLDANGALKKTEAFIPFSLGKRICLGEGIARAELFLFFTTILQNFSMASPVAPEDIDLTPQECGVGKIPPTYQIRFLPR
Experimental: as §1, §2, §3, §4

CYP2D6 = target: T3, CYP2D6 (Homo sapiens, UniProt P10635); assay: CYP inhibition test, liver microsome incubation; assay type: in vitro ADME; conditions: liver microsomes, probe dextromethorphan
T3 construct: from tissue; host or cells: liver microsomes
Experimental: as §1, §2, §3, §4

CYP2C19 = target: T4, CYP2C19 (Homo sapiens, UniProt P33261); assay: CYP inhibition test, liver microsome incubation; assay type: in vitro ADME; conditions: liver microsomes, probe methoin
T4 construct: The protein concentration of liver microsomes in the reaction system was 0.2 mg/mL; from tissue; host or cells: liver microsomes
Experimental: as §1, §2, §3, §4

CYP2C8 = target: T5, CYP2C8 (Homo sapiens, UniProt P10632); assay: CYP inhibition test, liver microsome incubation; assay type: in vitro ADME; conditions: liver microsomes, probe amodiaquine
T5 construct: from tissue; host or cells: liver microsomes
T5 sequence (P10632 1-490): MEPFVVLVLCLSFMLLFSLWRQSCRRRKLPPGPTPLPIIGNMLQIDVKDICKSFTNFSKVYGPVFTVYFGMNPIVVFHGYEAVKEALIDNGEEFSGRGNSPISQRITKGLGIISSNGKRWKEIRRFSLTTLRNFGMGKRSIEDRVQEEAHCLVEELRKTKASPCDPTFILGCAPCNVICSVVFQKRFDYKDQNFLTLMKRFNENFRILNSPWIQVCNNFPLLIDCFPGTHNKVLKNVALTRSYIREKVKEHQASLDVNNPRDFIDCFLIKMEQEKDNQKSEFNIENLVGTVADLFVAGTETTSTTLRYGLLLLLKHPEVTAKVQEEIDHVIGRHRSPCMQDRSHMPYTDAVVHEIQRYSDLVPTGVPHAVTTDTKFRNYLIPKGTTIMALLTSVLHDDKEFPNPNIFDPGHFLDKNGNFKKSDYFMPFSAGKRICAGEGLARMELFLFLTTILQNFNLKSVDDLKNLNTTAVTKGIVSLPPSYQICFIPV
Experimental: as §1, §2, §3, §4

CYP3A4 = target: T6, CYP3A4 (Homo sapiens, UniProt P08684); assay: CYP inhibition test, liver microsome incubation; assay type: in vitro ADME; conditions: liver microsomes
T6 construct: The protein concentration of liver microsomes in the reaction system was 0.2 mg/mL; from tissue; host or cells: liver microsomes
Experimental: as §1, §2, §3, §4

CYP1A2 = target: T7, CYP1A2 (Homo sapiens, UniProt P05177); assay: CYP inhibition test, liver microsome incubation; assay type: in vitro ADME; conditions: liver microsomes, probe phenacetin
T7 construct: from tissue; host or cells: liver microsomes
T7 sequence (P05177 1-516): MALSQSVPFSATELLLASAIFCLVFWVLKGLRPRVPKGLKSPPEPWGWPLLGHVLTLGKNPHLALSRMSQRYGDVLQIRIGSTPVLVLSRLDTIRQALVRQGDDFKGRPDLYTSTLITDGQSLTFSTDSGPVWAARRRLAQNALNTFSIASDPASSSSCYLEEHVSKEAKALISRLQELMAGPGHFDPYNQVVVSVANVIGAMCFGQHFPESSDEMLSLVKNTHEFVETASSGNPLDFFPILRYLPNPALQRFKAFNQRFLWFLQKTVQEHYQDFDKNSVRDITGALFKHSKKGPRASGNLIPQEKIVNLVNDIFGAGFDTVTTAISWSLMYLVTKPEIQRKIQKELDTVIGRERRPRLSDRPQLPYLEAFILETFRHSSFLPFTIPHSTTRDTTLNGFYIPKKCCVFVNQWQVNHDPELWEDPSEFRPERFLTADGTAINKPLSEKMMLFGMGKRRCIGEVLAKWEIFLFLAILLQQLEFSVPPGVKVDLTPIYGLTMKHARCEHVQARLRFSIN
Experimental: as §1, §2, §3, §4

hepatitis B virus (HBV) = assay: In vitro pharmacological test: HBV DNA replication in HepG2.2.15 cells; assay type: cell-based
Experimental: The inhibitory effect of the compounds of the invention on hepatitis B virus (HBV) was tested. The cytotoxicity of the compounds of the invention and the effect thereof on viral (HBV) nucleic acid (DNA) replication levels were tested at cellular level.
HepG2.2.15 cells in logarithmic growth phase were seeded in a 96-well plate at a cell concentration of 40 cells/μL, and were incubate for 3 days at 37° C. in a 5% CO2 incubator. The medium was replaced with new medium (200 μL/well) before adding the compound. The concentration of each compound of the examples in the stock solutions was 200 μM. The highest concentration was 200 μM, and dilution with DMSO lead to a number of different concentrations. 1 μL of the test compound was placed in the corresponding medium well, and the final test concentrations of the compounds were 0.06, 0.24, 0.98, 3.9, 15.6, 62.5, 250, 1000 nM (for calculating the medium effective concentration (EC50)).

[1] = male, ICR, mouse, in vivo, po, 10 mg/kg

T6 sequence (P08684 whole entry): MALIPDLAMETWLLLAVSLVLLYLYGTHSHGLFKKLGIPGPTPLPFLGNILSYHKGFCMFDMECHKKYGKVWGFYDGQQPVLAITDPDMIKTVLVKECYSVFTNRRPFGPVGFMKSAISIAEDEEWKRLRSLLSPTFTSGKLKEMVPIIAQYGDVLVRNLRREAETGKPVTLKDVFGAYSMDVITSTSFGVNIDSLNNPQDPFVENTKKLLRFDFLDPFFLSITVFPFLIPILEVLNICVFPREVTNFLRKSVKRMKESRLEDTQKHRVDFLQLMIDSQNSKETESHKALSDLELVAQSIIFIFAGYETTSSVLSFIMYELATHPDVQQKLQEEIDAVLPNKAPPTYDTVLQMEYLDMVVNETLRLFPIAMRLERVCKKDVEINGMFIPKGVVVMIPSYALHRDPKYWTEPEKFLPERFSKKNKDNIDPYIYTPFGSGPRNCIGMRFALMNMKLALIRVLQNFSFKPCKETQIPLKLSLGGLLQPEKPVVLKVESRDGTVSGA
T4 sequence (P33261 whole entry): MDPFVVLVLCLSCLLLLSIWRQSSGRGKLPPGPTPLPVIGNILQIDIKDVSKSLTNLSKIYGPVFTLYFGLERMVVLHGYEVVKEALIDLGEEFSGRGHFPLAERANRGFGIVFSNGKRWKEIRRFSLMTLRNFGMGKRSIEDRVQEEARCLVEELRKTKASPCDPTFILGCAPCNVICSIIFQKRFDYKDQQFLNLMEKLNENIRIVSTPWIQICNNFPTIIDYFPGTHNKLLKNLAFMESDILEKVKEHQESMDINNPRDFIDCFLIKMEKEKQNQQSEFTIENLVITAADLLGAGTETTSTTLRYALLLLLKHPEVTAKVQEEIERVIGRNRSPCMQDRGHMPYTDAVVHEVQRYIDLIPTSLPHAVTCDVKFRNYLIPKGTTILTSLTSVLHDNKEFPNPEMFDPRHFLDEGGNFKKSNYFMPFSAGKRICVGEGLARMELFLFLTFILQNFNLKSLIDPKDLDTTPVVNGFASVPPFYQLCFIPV
T3 sequence (P10635 whole entry): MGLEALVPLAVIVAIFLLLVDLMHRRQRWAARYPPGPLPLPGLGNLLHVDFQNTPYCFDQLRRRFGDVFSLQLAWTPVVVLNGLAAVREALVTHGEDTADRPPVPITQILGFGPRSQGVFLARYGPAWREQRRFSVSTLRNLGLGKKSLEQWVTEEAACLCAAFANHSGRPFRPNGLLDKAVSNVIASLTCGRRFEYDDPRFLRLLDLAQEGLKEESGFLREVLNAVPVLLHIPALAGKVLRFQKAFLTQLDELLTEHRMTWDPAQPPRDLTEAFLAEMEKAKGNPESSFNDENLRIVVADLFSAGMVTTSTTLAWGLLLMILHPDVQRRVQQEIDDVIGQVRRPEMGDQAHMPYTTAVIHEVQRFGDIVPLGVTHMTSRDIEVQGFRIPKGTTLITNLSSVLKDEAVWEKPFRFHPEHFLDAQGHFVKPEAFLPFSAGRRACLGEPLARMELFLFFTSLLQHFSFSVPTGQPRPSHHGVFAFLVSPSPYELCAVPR
T1 sequence (P11712 whole entry): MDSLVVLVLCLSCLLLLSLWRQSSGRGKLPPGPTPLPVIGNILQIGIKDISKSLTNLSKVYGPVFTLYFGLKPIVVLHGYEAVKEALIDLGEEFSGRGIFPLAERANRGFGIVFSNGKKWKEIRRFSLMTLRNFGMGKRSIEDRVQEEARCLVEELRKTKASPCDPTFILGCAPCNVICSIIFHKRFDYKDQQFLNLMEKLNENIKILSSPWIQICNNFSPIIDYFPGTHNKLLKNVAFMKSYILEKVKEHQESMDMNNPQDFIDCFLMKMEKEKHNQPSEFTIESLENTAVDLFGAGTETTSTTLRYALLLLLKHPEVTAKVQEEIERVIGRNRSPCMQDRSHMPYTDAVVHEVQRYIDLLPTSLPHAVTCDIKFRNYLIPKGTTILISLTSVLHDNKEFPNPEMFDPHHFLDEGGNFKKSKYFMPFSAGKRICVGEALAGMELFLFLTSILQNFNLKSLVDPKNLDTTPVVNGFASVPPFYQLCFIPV

concentration of Metabolite 1 in liver relative to the plasma concentration [1] [times]	SMILES	inhibitory effect on the eight CYP450 enzymes (in words) (CYP450 enzymes)	IC50 (CYP2C9) [µM]	IC50 (CYP2B6) [µM]	IC50 (CYP2D6) [µM]	IC50 (CYP2C19) [µM]	IC50 (CYP2C8) [µM]	IC50 (CYP3A4; probe midazolam) [µM]	IC50 (CYP3A4; probe testosterone) [µM]	IC50 (CYP1A2) [µM]	EC50 (hepatitis B virus (HBV)) [µM]
	C[C@H](Cn1cnc2c(N)ncnc21)OCP(=O)(NCCOCc1ccccc1)Oc1ccccc1 (mixture of isomers) [Ex. 15, ((((R)-1-(6-amino-9H-purin-9-yl)propan-2-yl)oxy)methyl)-phenoxy-N-(2-(benzyloxy)ethyl)phosphoramide]	no inhibitory effect	> 50	> 50	> 50	> 50	> 50	11.6	13.3	> 50	0.0547 ± 0.0264
21	C[C@H](Cn1cnc2c(N)ncnc21)OCP(=O)(O)O (single isomer, unassigned) [Metabolite 1 of Compound 22 - Isomer B of Example 16]										
